PubChem BioAssay AID2060512 (Molecular Pharmacology Branch, DTP, NCI, 2025)
“And” between values parts separate entries of the source, which are not always exact repeats. Equal values may be shown once.

Test system: 186277-243-T-J2-PDC complex spheroid viability
Test: Anticancer human tumor 186277-243-T-J2-PDC patient-derived colon adenocarcinoma cell line growth inhibition [GQUAD]
Details: for viability, T/C: stronger effect = lower value
Text: DNA G-quadruplex Stabilizer Agents in Combinations in Complex Spheroids
A high-throughput screen of multi-cell type tumor spheroids was designed to identify active combinations of DNA G-quadruplex stabilizer agents and targeted small molecules. Complex spheroids include a stromal component modeled by human endothelial cells (HUVEC) and fibroblasts modeled by human mesenchymal stem cells (MSCs). The concentration ranges selected for each drug and investigational agent were based upon clinically achievable concentrations if the clinical Cmax of the agent was known.
Compounds. The drugs and investigational agents: pidnarulex (CX-5461; NSC782164), APTO-253 (NSC789042), BRACO-19 (NSC847499), peposertib (NSC802822), ceralasertib (NSC780249), elimusertib (NSC800525), camonsertib (NSC841442), AZD-1390 (NSC803789), olaparib (NSC753686), talazoparib (NSC767125), ART-558 (NSC835418), sotorasib (NSC818433), MRTX-1133 (NSC836407), SN-38 (NSC673596), topotecan (NSC609699), etoposide (NSC141540), doxorubicin (NSC123127), gemcitabine (NSC613327), 5-fluorouracil (NSC19893), paclitaxel (NSC125973), vemurafenib (NSC761431), panobinostat (NSC761190), R-306465 (JNJ-16241199; NSC773264), adavosertib (NSC754352), TP-3654 (NSC805149), carboplatin (NSC241240), KSQ-4279 (NSC840948), and staurosporine (NSC755774) were obtained from the National Cancer Institute (NCI) Developmental Therapeutics Program Chemical Repository (34). The FDA-approved anticancer drug set is available from the NCI Developmental Therapeutics Program. […] The stock solutions were prepared in dimethyl sulfoxide (DMSO, Sigma-Aldrich, St. Louis, MO, cat. D2650) at 800-fold the tested concentration and stored at -70 degrees C prior to their use. All drugs and investigational agents were tested over a range starting from a high concentration at or near the clinical Cmax and decreasing in half-log increments. If the clinical Cmax for an agent had not been determined, the highest concentration tested was 10 microM.
2.3 Cell Culture. All cells were maintained in an incubator at 37 degrees C and 5% CO2 with 95% humidity. The PDC lines were cultured according to standard operating procedures established by the NCI PDMR. All PDCs were thawed and cultured in Matrigel-coated flasks prepared with a working solution of 1X Ham's F-12 nutrient mix, without supplementation (Invitrogen, cat. 11765054), 100 U/mL penicillin-streptomycin (Invitrogen, cat. 15140122), and 2.5% Matrigel (Corning Inc., cat. 354248) for the first three passages. The 857933-349-R-J2-PDC line was cultured in 6C/Colon 1B media, which includes advanced DMEM/F-12 (Thermo Fisher Scientific, cat. 12634028), 10 mM HEPES (Thermo Fisher Scientific, cat. 15630080), 1X GlutaMAX supplement (Thermo Fisher Scientific, cat. 35050061), 0.1 mg/mL primocin (InvivoGen, cat. ant-pm-2), 10% defined fetal bovine serum, heat inactivated (HyClone Laboratories Inc., cat. SH30070.03HI), 50% L-WRN conditioned media (ATCC, cat. CRL-3276), 1.25 mM N-Acetyl-L-cysteine (Sigma-Aldrich, cat. A9165), 10 mM nicotinamide (Sigma-Aldrich, cat. N0636), 1X B-27 supplement (Thermo Fisher Scientific, cat. 17504044), 1X N-2 supplement (Thermo Fisher Scientific, cat. 17502048), 10 microM Y-27632 dihydrochloride (Tocris Bioscience, cat. 1254), and 50 ng/mL human EGF recombinant protein (Thermo Fisher Scientific, cat. PHG0311). The 485176-168-R4-J1-PDC line was cultured in Panc media, which includes all 6C/Colon 1B media components plus 100 ng/mL human FGF-10 (Thermo Fisher Scientific, cat. 100-26), 500 nM SB-431542 (Selleckchem, cat. S1067), and gastrin (Tocris, cat. 3006).
[…]
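Also: spheroids exposed to drugs for 7 days.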
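For viability, T/C in this document: 100% = DMSO vehicle control viability.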

SMILES: CCc1c2c(nc3ccc(O)cc13)-c1cc3c(c(=O)n1C2)COC(=O)[C@]3(O)CC + Cc1[nH]c2ccc(F)cc2c1-c1nc2c3cccnc3c3ncccc3c2[nH]1
- IC50 (curve of first compound, second compound 0.0316 µM): 13 nM
- IC50 (curve of first compound, second compound 0.1 µM): 13.1 nM
- IC50 (curve of first compound, second compound 0.316 µM): 10.3 nM
- IC50 (curve of first compound, second compound 1 µM): 11.3 nM
- IC50 (curve of first compound, second compound 3.16 µM): 7.39 nM
- IC50 (curve of first compound, second compound 10 µM): 15.7 nM
- viability, T/C (second compound 0.0316 µM, first compound 0.000999 µM): 99.6%
- viability, T/C (second compound 0.0316 µM, first compound 0.00316 µM): 71.6%
- viability, T/C (second compound 0.0316 µM, first compound 0.00999 µM): 62.5%
- viability, T/C (second compound 0.0316 µM, first compound 0.0316 µM): 29.9%
- viability, T/C (second compound 0.0316 µM, first compound 0.0999 µM): 25.1%
- viability, T/C (second compound 0.0316 µM, first compound 0.316 µM): 21.1%
- viability, T/C (second compound 0.1 µM, first compound 0.000999 µM): 115%
- viability, T/C (second compound 0.1 µM, first compound 0.00316 µM): 94.5%
- viability, T/C (second compound 0.1 µM, first compound 0.00999 µM): 52.4%
- viability, T/C (second compound 0.1 µM, first compound 0.0316 µM): 36.5%
- viability, T/C (second compound 0.1 µM, first compound 0.0999 µM): 21.4%
- viability, T/C (second compound 0.1 µM, first compound 0.316 µM): 22%
- viability, T/C (second compound 0.316 µM, first compound 0.000999 µM): 105%
- viability, T/C (second compound 0.316 µM, first compound 0.00316 µM): 70.1%
- viability, T/C (second compound 0.316 µM, first compound 0.00999 µM): 54.2%
- viability, T/C (second compound 0.316 µM, first compound 0.0316 µM): 33.9%
- viability, T/C (second compound 0.316 µM, first compound 0.0999 µM): 23.7%
- viability, T/C (second compound 0.316 µM, first compound 0.316 µM): 19.8%
- viability, T/C (second compound 1 µM, first compound 0.000999 µM): 91.5%
- viability, T/C (second compound 1 µM, first compound 0.00316 µM): 73.2%
- viability, T/C (second compound 1 µM, first compound 0.00999 µM): 49.9%
- viability, T/C (second compound 1 µM, first compound 0.0316 µM): 37.4%
- viability, T/C (second compound 1 µM, first compound 0.0999 µM): 25%
- viability, T/C (second compound 1 µM, first compound 0.316 µM): 20.7%
- viability, T/C (second compound 3.16 µM, first compound 0.000999 µM): 85.9%
- viability, T/C (second compound 3.16 µM, first compound 0.00316 µM): 63.5%
- viability, T/C (second compound 3.16 µM, first compound 0.00999 µM): 45.6%
- viability, T/C (second compound 3.16 µM, first compound 0.0316 µM): 31%
- viability, T/C (second compound 3.16 µM, first compound 0.0999 µM): 26.4%
- viability, T/C (second compound 3.16 µM, first compound 0.316 µM): 18.7%
- viability, T/C (second compound 10 µM, first compound 0.000999 µM): 77.2%
- viability, T/C (second compound 10 µM, first compound 0.00316 µM): 72.2%
- viability, T/C (second compound 10 µM, first compound 0.00999 µM): 58.8%
- viability, T/C (second compound 10 µM, first compound 0.0316 µM): 36.8%
- viability, T/C (second compound 10 µM, first compound 0.0999 µM): 24.1%
- viability, T/C (second compound 10 µM, first compound 0.316 µM): 23.3%

SMILES: CC(=O)O[C@H]1C(=O)[C@@]2(C)[C@H]([C@H](OC(=O)c3ccccc3)[C@]3(O)C[C@H](OC(=O)[C@H](O)[C@@H](NC(=O)c4ccccc4)c4ccccc4)C(C)=C1C3(C)C)[C@]1(OC(C)=O)CO[C@@H]1C[C@@H]2O
- viability, T/C (compound 0.0316 µM): 11.9% and 17.4% and 29%
- viability, T/C (compound 0.1 µM): 4.45% and 7.62% and 9.72%
- viability, T/C (compound 0.316 µM): 5.05% and 6.94% and 9.26%
- viability, T/C (compound 1 µM): 5.03% and 4.51% and 8.19%
- viability, T/C (compound 3.16 µM): 4.85% and 4.62% and 5.67%
- viability, T/C (compound 10 µM): 4.7% and 4.26% and 6.48%
- IC50 (curve of compound): < 31.6 nM
